Laboratory results reported in ChEMBL document CHEMBL1124557, “Pentadienyl carboxamide derivatives as antagonists of platelet-activating factor” (J Med Chem, 1989).

What was measured:
Cavia porcellus [1] = test: Ability to prevent PAF-induced bronchoconstriction in guinea pig when administered at a dose of 1 mg/kg intravenously; format: functional; details: route intravenous
[2] = target: Platelet-activating factor receptor (Cavia porcellus) (UniProt P21556); test: Ability to prevent PAF-induced bronchoconstriction in guinea pig 2 hr after administration (50 mg/kg perorally); format: functional, organism-based
Sequence of Platelet-activating factor receptor (Cavia porcellus) (P21556 whole entry): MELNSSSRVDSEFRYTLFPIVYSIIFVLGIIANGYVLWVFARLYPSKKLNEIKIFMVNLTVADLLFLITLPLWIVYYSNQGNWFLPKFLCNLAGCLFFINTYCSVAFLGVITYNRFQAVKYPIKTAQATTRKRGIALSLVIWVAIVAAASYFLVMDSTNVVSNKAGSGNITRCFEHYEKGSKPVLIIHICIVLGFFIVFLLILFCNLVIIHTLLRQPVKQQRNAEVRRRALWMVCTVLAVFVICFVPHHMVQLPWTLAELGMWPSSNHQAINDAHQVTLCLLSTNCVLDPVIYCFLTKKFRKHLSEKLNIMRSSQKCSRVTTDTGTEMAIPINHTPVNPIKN

Cavia porcellus [3] = test: Inhibition of PAF-induced bronchoconstriction in guinea pig 2 hr after p.o. administration.; format: functional; details: po, read-out: ID50 (the source's name)
[4] = target: Platelet-activating factor receptor (Cavia porcellus) (UniProt P21556); test: Ability to prevent PAF-induced bronchoconstriction in guinea pig when administered intravenously; format: functional
Cavia porcellus [5] = test: Ability to prevent PAF-induced bronchoconstriction in guinea pig 6 hr following 50 mg/kg p.o. administration.; format: functional; details: route oral

Structure (SMILES)	inhibition in vivo at 1 mg/kg (Cavia porcellus [1]) [%]	inhibition [2] [%]	ED50 (Cavia porcellus [3]) [mg/kg]	ID50 [4] [mg/kg]	inhibition in vivo at 50 mg/kg (Cavia porcellus [5]) [%]
CC[C@@H](CCCc1cccnc1)NC(=O)/C=C/C=C(c1ccc(OC)cc1)c1ccc(OC)cc1	44	–	–	–	–
COc1ccccc1C(=C/C=C/C(=O)NCCCCc1cccnc1)c1ccccc1OC	40	–	–	–	–
C[C@H](CCCc1cccnc1)NC(=O)/C=C/C=C(c1cccc(F)c1)c1cccc(F)c1	73	91	37	0.22	87
CC/C(=C\C=C\C(=O)N[C@H](C)CCCc1cccnc1)c1ccc(OC)cc1	72	84	35	0.68	9
COc1ccc(C(=C/C=C/C(=O)Nc2ccc(Cc3cccnc3)cc2)c2ccc(OC)cc2)cc1	3	–	–	–	–
CCCC[C@H](CCCc1cccnc1)NC(=O)/C=C/C=C(c1ccc(OC)cc1)c1ccc(OC)cc1	42	–	–	–	–
COc1cccc(C(=C/C=C/C(=O)N[C@H](C)CCCc2cccnc2)c2cccc(OC)c2)c1	88	86	29	0.21	12
COc1cccc(C(=C/C=C/C(=O)N[C@@H](C)CCCc2cccnc2)c2cccc(OC)c2)c1	36	10	–	–	–
COc1ccc(C(=C/C=C/C(=O)NCCCCc2cccnc2)c2ccc(OC)cc2)cc1	92	82	12	0.25	71
C[C@@H](CCCc1cccnc1)NC(=O)/C=C/C=C(c1cccc(F)c1)c1cccc(F)c1	34	46	–	–	–
Cc1ccc(C(=C/C=C/C(=O)N[C@H](C)CCCc2cccnc2)c2ccc(C)cc2)cc1	97	91	18	0.3	14
COc1ccc(C(=C/C=C/C(=O)NC(C)CCCc2cccnc2C)c2ccc(OC)cc2)cc1 (stereo not given)	47	–	–	1.1	–
COc1ccc(C(=C/C=C/C(=O)NCCCOc2cccnc2)c2ccc(OC)cc2)cc1	43	–	–	–	–
COc1ccc(/C(=C\C=C\C(=O)N[C@H](C)CCCc2cccnc2)C2CCCCC2)cc1	18	–	–	–	–
COc1ccc(/C(=C\C=C\C(=O)N[C@H](C)CCCc2cccnc2)c2ccccc2)cc1	74	0	–	0.5	–
COc1cccc(/C(=C\C=C\C(=O)NCCCCc2cccnc2)c2cccc(F)c2)c1	88	25	–	0.46	–
C[C@H](CCCc1cccnc1)NC(=O)/C=C/C=C(c1ccc(F)cc1)c1ccc(F)cc1	70	53	–	0.31	–
COc1ccc(C(=C/C=C/C(=O)NCCCCc2cccnc2)c2ccc(OC)c(OC)c2)cc1OC	78	71	27	0.54	17
COc1ccc(C(=C/C=C/C(=O)N[C@@H](CCCc2cccnc2)C2CC2)c2ccc(OC)cc2)cc1	98	99	6	0.2	82
COc1ccc(/C(=C/C=C/C(=O)N[C@H](C)CCCc2cccnc2)C2CCCCC2)cc1	73	97	10	0.21	12
CCCCCCCC/C(=C\C=C\C(=O)N[C@H](C)CCCc1cccnc1)c1ccc(OC)cc1	98	84	13	0.1	27
O=C(/C=C/C=C(c1ccc(Cl)cc1)c1ccc(Cl)cc1)NCCCCc1cccnc1	95	54	50	0.18	–
COc1ccc(C(=C/C=C/C(=O)NCCOCc2cccnc2)c2ccc(OC)cc2)cc1	48	–	–	–	–

Structure (SMILES)	inhibition in vivo at 1 mg/kg (Cavia porcellus [1]) [%]	inhibition [2] [%]	ED50 (Cavia porcellus [3]) [mg/kg]	ID50 [4] [mg/kg]	inhibition in vivo at 50 mg/kg (Cavia porcellus [5]) [%]
COc1ccc(/C(=C/C=C/C(=O)N[C@H](C)CCCc2cccnc2)c2ccccc2)cc1	89	95	–	0.16	53
COc1ccc(C(=C/C=C/C(=O)N[C@@H](CCCc2cccnc2)C2CCCC2)c2ccc(OC)cc2)cc1	19	–	–	–	–
Cc1ccc(C(=C/C=C/C(=O)NCCCCc2cccnc2)c2ccc(C)cc2)cc1	95	67	43	0.26	11
COc1ccc(C(=C/C=C/C(=O)Nc2ccc(-c3cccnc3)cc2)c2ccc(OC)cc2)cc1	97	82	29	0.15	77
CCC[C@H](CCCc1cccnc1)NC(=O)/C=C/C=C(c1ccc(OC)cc1)c1ccc(OC)cc1	24	–	–	–	–
CCCCCC(=C/C=C/C(=O)N[C@H](C)CCCc1cccnc1)CCCCC	78	4	–	0.64	–
O=C(/C=C/C=C(c1cccc([N+](=O)[O-])c1)c1cccc([N+](=O)[O-])c1)NCCCCc1cccnc1	78	–	–	0.26	–
COc1ccc(C(=C/C=C/C(=O)N[C@@H](CCCc2cccnc2)C(C)C)c2ccc(OC)cc2)cc1	87	57	26	0.43	–
COc1ccc(C(=C/C=C/C(=O)NC(C)(C)CCCc2cccnc2)c2ccc(OC)cc2)cc1	97	54	55	0.27	–
COc1ccc(C(=C/C=C/C(=O)N[C@@H](C)CCCc2cccnc2)c2ccc(OC)cc2)cc1	59	90	29	0.84	56
COc1cccc(/C(=C/C=C/C(=O)NCCCCc2cccnc2)c2cccc(F)c2)c1	90	1	–	0.25	–
CCCC/C(=C\C=C\C(=O)N[C@H](C)CCCc1cccnc1)c1ccc(OC)cc1	99	98	12	0.68	69
COc1ccc(/C(=C/C=C/C(=O)N[C@H](C)CCCc2cccnc2)C(C)C)cc1	89	71	30	0.41	20
CC[C@H](CCCc1cccnc1)NC(=O)/C=C/C=C(c1ccc(OC)cc1)c1ccc(OC)cc1	99	99	6	0.16	85
CCCCC/C(=C/C=C/C(=O)N[C@H](C)CCCc1cccnc1)c1ccc(OC)cc1	57	13	–	0.78	–
COc1ccc(/C(C)=C/C=C/C(=O)N[C@H](C)CCCc2cccnc2)cc1	42	–	–	–	–
COc1cccc(C(=C/C=C/C(=O)NCCCCc2cccnc2)c2cccc(OC)c2)c1	69	31	80	0.36	–
O=C(/C=C/C=C(c1cccc(Cl)c1)c1cccc(Cl)c1)NCCCCc1cccnc1	76	23	–	0.47	–
COc1ccc(/C=C/C=C/C(=O)N[C@H](C)CCCc2cccnc2)cc1	-17	–	–	–	–
CCC/C(=C\C=C\C(=O)N[C@H](C)CCCc1cccnc1)c1ccc(OC)cc1	86	9	–	0.52	–
COc1ccc(C(=C/C=C/C(=O)NC(C)CCCc2ccc(C)nc2)c2ccc(OC)cc2)cc1 (stereo not given)	5	–	–	–	–
C[C@@H](CCCc1cccnc1)NC(=O)/C=C/C=C(c1ccc(F)cc1)c1ccc(F)cc1	21	–	–	–	–
